Data on six molecules can be found in US20210337791A1, “Methods For Killing Insects Such As Drosophila species” (The United States of America, as represented by the …, priority 2020, published 2021).

Structures are written as SMILES.

One data set is described as follows: Aqueous solubility. It is filed as physicochemical. An excerpt:
By the term “effective amount” of a compound or property as provided herein is meant such amount as is capable of performing the function of the compound or property for which an effective amount is expressed. As will be pointed out below, the exact amount required will vary from process to process, depending on recognized variables such as the compounds employed and the processing conditions observed. Thus, it is not possible to specify an exact “effective amount.” However, an appropriate effective amount may be determined by one of ordinary skill in the art using only routine experimentation. Generally the concentration of the compounds will be, but not limited to, at least about 0.1% (e.g., at least 0.1%; for example in an aqueous solution), at least about 1% (e.g., at least 1%), preferably at least about 2% (e.g., at least 2%), preferably at least about 3% (e.g., at least 3%), preferably at least about 4% (e.g., at least 4%). […] However, higher concentrations than the limits shown could be obtained using solubilizing agents (e.g., DMSO of DMF) or chelating agents; for example, at least about 5% (e.g., at least 5%), preferably at least about 6% (e.g., at least 6%), preferably at least about 7% (e.g., at least 7%), preferably at least about 8% (e.g., at least 8%), preferably at least about 9% (e.g., at least 9%), and preferably at least about 10% (e.g., at least 10%). Concentrations lower than about 2% would require longer duration of exposure, such as the composition in a bait station to which the target insects have long term access to, thus increasing the total dose.

The next data set deals with Drosophila suzukii. Kind of data set: Feeding test of D. suzukii adults with tyramine or M-tyramine sucrose solutions (fly mortality). It is filed as in vivo. To be noted: 7 days; for fly mortality, first and second experiments: 1% solution in 0.5 M sucrose; for mortality: 4% compound in 0.5 M sucrose. As to the method:
Flies and sugars: Drosophila suzukii used in these experiments were from a colony maintained at 22±5° C. under a photoperiod of L:D 16:8 h and a relative humidity of 60±5% RH at the Horticultural Crops Research Unit, USDA ARS in Corvallis, Oreg. Wildtype flies collected from infested fruits in Corvallis, Oreg., were used to start the colony. Standard rearing methods and diet are described by Woltz et al. (Journal of Applied Entomology, 139: 759-770 (2015)). Newly emerged adult males and females were collected daily and maintained in cages with water and diet until they were specific ages for experimentation.
The chemical components were tyramine (98%, Sigma-Aldrich), N-methyl-tyramine (shortened name=M-tyramine), 95%, Combi-Blocks, Inc.), and sucrose (>99%, Fisher Scientific, Hampton, N.H.).
The effect of tyramine and M-tyramine formulations on fly mortality-I: Ten 5-day old flies (5 males and 5 females) were introduced into a plastic vial and given a tube (1.5 ml) containing different water-based solutions (FIG. 1). For the first experiment various pairs were tested (FIG. 2A): (a) Sucrose 0.5 M only; (b) Tyramine 0.1%+Sucrose 0.5 M (0.1% Tyramine); (c) Tyramine 1%+Sucrose 0.5 M (1% Tyramine); (d) M-Tyramine 0.1%+Sucrose 0.5 M (0.1% M-Tyramine); and (e) M-Tyramine 1%+Sucrose 0.5 M (1% M-Tyramine).
The effect of tyramine and M-tyramine formulations on fly mortality-II: The second experiment consisted of the following (FIG. 2B): (a) Sucrose 0.5 M only; (b) Tyramine 1%+Sucrose 0.5 M (1% Tyramine); (c) Tyramine 2%+Sucrose 0.5 M (2% Tyramine); (d) M-Tyramine 1%+Sucrose 0.5 M (1% M-Tyramine), and (e) M-Tyramine 2%+Sucrose 0.5 M (2% M-Tyramine).
The effect of tyramine and M-tyramine formulations on fly mortality-III: The third experiment consisted of the following (FIG. 2C): (a) Sucrose 0.5 M only; (b) Tyramine 2%+Sucrose 0.5 M (2% Tyramine); (c) Tyramine 4%+Sucrose 0.5 M (4% Tyramine); (d) M-Tyramine 2%+Sucrose 0.5 M (2% M-Tyramine); and (e) M-Tyramine 4%+Sucrose 0.5 M (4% M-Tyramine). Survivorship of flies was checked daily for 7 days. Each pair per experiment was replicated at least eight times.

A further data set relates to fire ant. In words: Feeding of biogenic amines to fire ants (worker and queen mortality). The data set is classed as in vivo. The following applies: for fire ant worker mortality versus sucrose controls: biogenic amines all formulated at 1.0%.
The subject of a further data set is tawny crazy ant workers. In words: Pest ant specificity of tyramine using tawny crazy ant workers. The data set is classed as in vivo.

What is called mortality is the share of the test organisms that died. `CNCCc1ccc(O)cc1` [M-tyramine, N-methyl-tyramine]: the “aqueous solubility (upper limit)” value in “Aqueous solubility” (free base) is listed as ~3.4%. In addition, the “aqueous solubility (upper limit)” value in the data set “Aqueous solubility” (salt form) is “about 10%”. For the same molecule, in the data set on Drosophila suzukii, the “fly mortality, first and second experiments” value is “not statistically consistent”; the mortality came out at 100%.

For the molecule `NCCc1ccc(O)c(O)c1` [dopamine], in the data set with fire ant, the “fire ant worker mortality versus sucrose controls” value was “no different than the sucrose controls”.

On to `NCCc1c[nH]cn1` [histamine], for which the “fire ant worker mortality versus sucrose controls” value in the data set on fire ant was “no different than the sucrose controls”.

On to `NCC(O)c1ccc(O)cc1` (centres unmarked) [octopamine], for which, in the data set with fire ant, the “fire ant worker mortality versus sucrose controls” value was “no different than the sucrose controls”.

For the molecule `NCCc1c[nH]c2ccc(O)cc12` [serotonin], the “fire ant worker mortality versus sucrose controls” value in the data set on fire ant is reported as “no different than the sucrose controls”.

As for `NCCc1ccc(O)cc1` [tyramine], the “aqueous solubility (upper limit)” value in the data set “Aqueous solubility” (free base) is listed as “about 1%”. Moreover, the “aqueous solubility (upper limit)” value in the data set “Aqueous solubility” (salt form) is on record as “about 5%”. Besides, the “fly mortality versus 0.5 M sucrose negative control” value in the data set with Drosophila suzukii (0.1% solution in 0.5 M sucrose) was “not significantly different”. In the data set on Drosophila suzukii, the “fly mortality, first and second experiments” value is “not statistically consistent”; the mortality amounted to 100%. Besides, the “fire ant worker mortality versus sucrose controls” value in the data set with fire ant is given as “significant fire ant worker mortality”. In addition, the “mortality in small lab colonies” value with fire ant (tyramine fed to small lab fire ant colonies) was “worker and queen fire ant mortality”. In the data set on fire ant (workers fed 1.0, 0.1, and 0.01% wt(g)/vol(L)), the “fire ant worker mortality” value is recorded as “significant mortality”. Further, the “mortality of tawny crazy ant workers versus controls” value in the data set with tawny crazy ant workers was “did not result in mortality greater than the controls”.
